Like-named read-outs stand apart in the source and are kept apart here. Where only a bound is given, the exact number is not on record here.

The target in test [1] is T1, Full-length (FL)-PRMT5-MEP50 enzyme complex (Homo sapiens, UniProt O14744).
T1 construct: Full-length (FL)-PRMT5-MEP50 enzyme complex (recombinant proteins from baculovirus-transfected Sf21 cells: FL-PRMT5; MW=73837 kDa and FL-MEP50; MW=38614); made in house; host or cells: baculovirus-transfected Sf21 cells
Nature of the test: PRMT5-MEP50 Enzyme Methylation Assay (Version B). The test is classed as biochemical. How it is done: PRMT5-MEP50 Enzyme Methylation Assay (Version B)
PRMT5/MEP50 biochemical assay is a direct measurement of the methylation activity of the enzyme complex on a short peptide substrate derived from the N-terminus of H4 histone. Methylation experiment was performed with recombinant protein. The assessment of inhibitory effect (IC50) of small molecules was measured by the effectiveness of the compounds to inhibit this reaction.
In this assay, the potency (IC50) of each compound was determined from a twenty-point (1:2 serial dilution; top compound concentration of 100000 nM) titration curve using the following outlined procedure. To each well of a white ProxiPlus 384 well-plate, 100 nL of compound (1% DMSO in final assay volume of 10 μL) was dispensed, followed by the addition of 8 μL of 1× assay buffer (50 mM Bicine pH 8.0, 1 mM DTT, 0.004% Tween20, 0.01% BSA) containing 0.5 nM of Full-length (FL)-PRMT5-MEP50 enzyme complex (recombinant proteins from baculovirus-transfected Sf21 cells: FL-PRMT5; MW=[…] and FL-MEP50; MW=38614). Plates were sealed and placed in a 37° C. humidified chamber for 30 minutes pre-incubation with compounds. Subsequently, each reaction was initiated by the addition of 2 μL 1× assay buffer containing 75 nM biotinylated H4R3 (Me1) peptide, and 15 μM S-(5′-Adenosyl)-L-Methionine Chloride (SAM). The final reaction in each well of 10 μL consists of 0.5 nM PRMT5-MEP50, 75 nM biotinylated-peptide, and 15 μM SAM. Methylation reactions were allowed to proceed for 150 minutes in a sealed plate at 37° C. Reactions were immediately quenched by the addition of 1 μL of 10% formic acid. Plates were then frozen and shipped to SAMDI™ Tech Inc. to determine the percent conversion from […]. EC50 values were determined by non-linear regression according to models for either sigmoidal (4 parameters) or biphasic (7 parameters) dose-response curves.

For test [2], the system named is symmetric dimethylation of arginine (SDMA) of PRMT5 substrates in MCF-7 cells. The test can be described thus: PRMT5 Cell Target Engagement (TE) Assay. Particulars: Homo sapiens, MCF7, 72 h, 3 days treatment, SDMA high content imaging. The test is classed as cell-based. In outline: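 MCF-7 cells treated 3 days at 37 °C with a ten-point 1:3 titration from 10000 nM. Fixed cells immunostained with anti-SDMA and Alexa488 secondary; nuclear fluorescence quantified by high-content imaging versus DMSO wells, with IC50 from a 4-parameter fit.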

The mark [3] stands for this setting: second value of 7 parameter biphasic fit, read-out: Enzyme Methylation Assay Version B (EC50 2).
Setting [4] is: single EC50 = 4 parameter single site sigmoidal fit, EC50 1 = first value of 7 parameter biphasic fit, read-out: Enzyme Methylation Assay Version B (EC50 or EC50 1).

T1 sequence (O14744 whole entry): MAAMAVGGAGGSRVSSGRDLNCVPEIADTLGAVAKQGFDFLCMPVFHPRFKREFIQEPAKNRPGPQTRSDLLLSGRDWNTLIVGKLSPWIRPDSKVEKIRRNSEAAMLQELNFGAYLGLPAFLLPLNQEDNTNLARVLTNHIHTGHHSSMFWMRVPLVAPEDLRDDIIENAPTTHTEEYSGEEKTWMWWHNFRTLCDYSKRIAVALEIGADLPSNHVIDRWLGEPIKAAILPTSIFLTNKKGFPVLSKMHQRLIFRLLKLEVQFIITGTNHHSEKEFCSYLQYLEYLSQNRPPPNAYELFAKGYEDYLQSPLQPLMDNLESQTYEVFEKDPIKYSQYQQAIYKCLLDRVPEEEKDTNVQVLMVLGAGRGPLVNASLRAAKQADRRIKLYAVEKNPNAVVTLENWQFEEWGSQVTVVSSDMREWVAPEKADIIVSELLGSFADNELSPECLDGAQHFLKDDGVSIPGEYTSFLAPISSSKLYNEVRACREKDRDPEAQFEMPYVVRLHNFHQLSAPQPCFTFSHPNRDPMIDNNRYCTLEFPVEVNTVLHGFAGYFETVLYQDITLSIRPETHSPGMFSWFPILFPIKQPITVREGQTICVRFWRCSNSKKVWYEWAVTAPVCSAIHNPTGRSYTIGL
T1 sequence (Q9BQA1 whole entry partner): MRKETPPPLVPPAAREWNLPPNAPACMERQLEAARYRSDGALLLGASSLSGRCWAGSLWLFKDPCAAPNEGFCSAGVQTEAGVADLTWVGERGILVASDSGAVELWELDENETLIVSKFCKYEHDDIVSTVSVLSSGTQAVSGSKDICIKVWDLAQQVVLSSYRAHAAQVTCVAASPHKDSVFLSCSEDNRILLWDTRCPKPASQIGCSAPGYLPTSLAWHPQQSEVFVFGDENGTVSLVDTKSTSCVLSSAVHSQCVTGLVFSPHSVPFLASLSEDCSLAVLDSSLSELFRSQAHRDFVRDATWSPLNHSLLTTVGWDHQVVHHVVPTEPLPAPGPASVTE

For the molecule `CC(=O)N1CCC(Nc2cc(C(=O)N3CCC4(CC3)Cc3ccc(Cl)cc3CN4)ncn2)CC1` [Example 53, 1-(4-{[6-(7-chloro-1,4-dihydro-1′H,2H-spiro[isoquinoline-3,4′-piperidine]-1′-carbonyl)pyrimidin-4-yl]amino}piperidin-1-yl)ethan-1-one], the values for the EC50 in test [1] (setting [3]), in test [1] (setting [4]) and in test [2] were 5550 nM, 6.21 nM and 488 nM, respectively.

With `O=C(c1ccc(-c2ncnn2C2CC2)cc1Cl)N1CC[C@]2(Cc3ccccc3CN2)[C@H](O)C1` [Example 110, (2-chloro-4-(1-cyclopropyl-1H-1,2,4-triazol-5-yl)phenyl)((3R,3′R)-3′-hydroxy-1,4-dihydro-2H-spiro[isoquinoline-3,4′-piperidin]-1′-yl)methanone], the EC50 in test [1] (setting [3]) amounted to 8710 nM; in test [1] (setting [4]) it was 3.31 nM; in test [2], 53 nM.

Consider `CCOc1nc(Cl)ccc1C(=O)N1CCC2(CC1)Cc1ccccc1CN2` [Example 114, (6-chloro-2-ethoxypyridin-3-yl)(1,4-dihydro-1′H,2H-spiro[isoquinoline-3,4′-piperidin]-1′-yl)methanone], for which the 50% effective concentration (EC50) came to 15000 nM in test [1] (setting [3]), 15.1 nM in test [1] (setting [4]) and 7550 nM in test [2].

As for `CCOc1nc(C(F)(F)F)ccc1C(=O)N1CCC2(CC1)Cc1ccccc1CN2` [Example 115, (1,4-dihydro-1′H,2H-spiro[isoquinoline-3,4′-piperidin]-1′-yl)[2-ethoxy-6-(trifluoromethyl)pyridin-3-yl]methanone], the values for the half-maximal effective concentration (EC50) in test [1] (setting [3]), in test [1] (setting [4]) and in test [2] were 55000 nM, 86.3 nM and ≥ 10000 nM, respectively.

Consider `O=C(c1ccc(C(F)(F)F)nc1Cl)N1CCC2(CC1)Cc1ccccc1CN2` [Example 116, [2-chloro-6-(trifluoromethyl)pyridin-3-yl](1,4-dihydro-1′H,2H-spiro[isoquinoline-3,4′-piperidin]-1′-yl)methanone], for which the concentration for a half-maximal effect (EC50) was ≥ 100000 nM in test [1] (setting [3]), 807 nM in test [1] (setting [4]) and ≥ 10000 nM in test [2].

`Cn1ncnc1-c1ccc(C(=O)N2CCC3(CC2)Cc2ccccc2CN3)cc1` [Example 117, (1,4-dihydro-1′H,2H-spiro[isoquinoline-3,4′-piperidin]-1′-yl)[4-(1-methyl-1H-1,2,4-triazol-5-yl)phenyl]methanone]: the EC50 in test [1] (setting [3]) was ≥ 100000 nM; in test [1] (setting [4]) it was 690 nM; in test [2], ≥ 10000 nM.

As to `O=C(c1ccc(-c2nnc(C3CC3)o2)cc1)N1CCC2(CC1)Cc1ccccc1CN2` [Example 118, [4-(5-cyclopropyl-1,3,4-oxadiazol-2-yl)phenyl](1,4-dihydro-1′H,2H-spiro[isoquinoline-3,4′-piperidin]-1′-yl)methanone], the EC50 in test [1] (setting [3]) is ≥ 100000 nM; in test [1] (setting [4]), 510 nM; in test [2], ≥ 10000 nM.

In the case of `CCOc1cc(C(=O)N2C3CCC2COC3)ccc1C(=O)N1CCC2(CC1)Cc1ccccc1CN2` [Example 172, (4-(3-oxa-8-azabicyclo[3.2.1]octane-8-carbonyl)-2-ethoxyphenyl)(1,4-dihydro-2H-spiro[isoquinoline-3,4′-piperidin]-1′-yl)methanone], the concentration giving a half-maximal response (EC50) in test [1] (setting [3]) came to 1940 nM; in test [1] (setting [4]), 5.42 nM; in test [2] it was 88.9 nM.

For `O=C(c1ccc(C(=O)N2C3CCC2COC3)cc1)N1CCC2(CC1)Cc1ccccc1CN2` [Example 173, (4-(3-oxa-8-azabicyclo[3.2.1]octane-8-carbonyl)phenyl)(1,4-dihydro-2H-spiro[isoquinoline-3,4′-piperidin]-1′-yl)methanone], the EC50 was found to be 14400 nM in test [1] (setting [3]), 32.3 nM in test [1] (setting [4]) and 5310 nM in test [2].

For `CC(=O)N1CCC(Nc2cc(C(=O)N3CCC4(CC3)Cc3ccccc3CN4)ccn2)CC1` [Example 174, 1-(4-((4-(1,4-dihydro-2H-spiro[isoquinoline-3,4′-piperidine]-1′-carbonyl)pyridin-2-yl)amino)piperidin-1-yl)ethan-1-one], the EC50 in test [1] (setting [3]) was found to be 8840 nM; in test [1] (setting [4]) it was 13.3 nM; in test [2] it was 797 nM.

Take `[2H]C1([2H])NC2(CCN(C(=O)c3ccc(C(=O)N4C5CCC4COC5)cc3OCC)CC2)Cc2ccccc21` [Example 175, (4-(3-oxa-8-azabicyclo[3.2.1]octane-8-carbonyl)-2-ethoxyphenyl)(1,4-dihydro-2H-spiro[isoquinoline-3,4′-piperidin]-1′-yl-1,1-d2)methanone]: the half-maximal effective concentration (EC50) in test [1] (setting [3]) worked out at 2490 nM; in test [1] (setting [4]) it was 6.32 nM; in test [2], 156 nM.

Turning to `O=C(c1ccc(C(=O)N2C3CCC2COC3)cc1OC1CC1)N1CCC2(CC1)Cc1ccccc1CN2` [Example 176, (4-(3-oxa-8-azabicyclo[3.2.1]octane-8-carbonyl)-2-cyclopropoxyphenyl)(1,4-dihydro-2H-spiro[isoquinoline-3,4′-piperidin]-1′-yl)methanone], the EC50 in test [1] (setting [3]) was found to be 2860 nM; in test [1] (setting [4]), 11 nM; in test [2] it was 253 nM.

For orientation: EC50 means the concentration that produces a half-maximal response.

These data come from patent US12441730B2, “PRMT5 inhibitors” (Merck Sharp & Dohme LLC, priority 2019, dated 2025).
